pIC50: −log10 of the molar value. Several values for one entry are separate records, joined by “and”; a condition that tells them apart may be missing. Equal entries are not always repeated. Where two headings read alike, the source gives them in different places.
What was measured:
[1] = test system: P. falciparum NF54 asexual blood-stage parasites; experiment: 72-h asexual blood-stage replication assay (SYBR Green); format: cell-based, Plasmodium falciparum; parameters: key to asexual blood stages growth, dose-response: % growth; DMSO control = 100%, DHA/epoxomicin-treated = no growth
Experimental: Replication assays were performed using a SYBR Green method as described previously. Briefly, asynchronous parasites were diluted to 0.83% parasitemia, 3% hematocrit in 30 µl medium, and added to 30 µl of diluted compounds in medium (0.1% DMSO final concentration) in black 384-wells plates. After a 72-h incubation, 30 µl of SYBR Green diluted in lysis buffer was added according to the manufacturer’s protocol (Life Technologies). Fluorescence intensity was measured on a BioTek Synergy 2 Plate Reader after 1-h incubation and was normalized to a DMSO control (100% growth) and DHA- or epoxomicin-treatment (no growth). […] Parasite survival was assessed by flow cytometry on an Accuri C6 (BD Biosciences) with BD C6 Plus software using SYBR Green and MitoTracker Deep Red FM (Life Technologies) as nuclear stain and vital dye, respectively, and data were analyzed using FlowJo (10.5.0). […] Luminescence was measured after 72 h using the Renilla-Glo(R) Luciferase Assay System (Promega E2750) and the GlomAX® Discover Multimode Microplate Reader (Promega). The luminescence values were normalized to DMSO vehicle (100% growth) and 200 nM chloroquine-treated (no growth) samples as controls.
Dose-response assays were analyzed by a nonlinear regression using a four-parameter model and the least squares method to find the best fit. One-way Analysis of variance (ANOVA) was performed using the Bonferroni’s Multiple Comparison Test. For the majority of experiments, 2-4 biological replicates were performed. Typically, 2 replicates were performed for screening activities, and a minimum of 3 replicates are performed for other experiments unless stated otherwise.

[2] = Blood concentration and PK in infected NSG mice after single oral dose; format: in vivo, mouse
Experimental: The effect of pantothenamides on P. falciparum Pf3D7^0087/N9 [66] in vivo was assessed in female NSG mice (NODscidIL2Rγ^null) at the Swiss Tropical and Public Health Institute (Basel, Switzerland) as described previously (Supplementary Table 30)[15],[67]. Briefly, humanized mice were engrafted daily with human erythrocyte suspensions from days -11 to day 6. After 11 days (day 0), mice were injected intravenously with 3×10^7 infected RBCs in a volume of 0.1 ml. On day 4, groups of n = 2 mice were treated with a single dose pantothenamides or chloroquine (50 mg/kg) by oral gavage. The hematocrit of all dosed mice and an untreated control group (n = 4 mice) was determined by fluorescence-activated cell sorting and parasitemia was analyzed by microscopy on >10,000 RBCs as described before. Samples to quantify compound metabolites were collected and prepared at different time points (1, 2, 4, 6, and 24 h after treatment) for each mouse by mixing 20 µl of whole blood with 20 µl of Milli-Q, followed by immediate freezing of samples on dry ice. […] Serial dilutions were prepared in the same solvent to concentrations 50 times higher than the corresponding CAL and QC concentrations. The concentrations were calculated under consideration of purity and salt factor. The spiking of the CAL and QC sample were performed at room temperature. The eight calibration levels were 5.00, 10.0, 50.0, 100, 500, 1000, 3750, and 5000 ng/mL and three QC levels 15.0, 100, and 3750 ng/mL were analyzed in duplicate, together with the study samples.
For the sample precipitation, to an aliquot of 10 µL mouse blood/water (1/1) study sample, 20 µL of acetonitrile containing the internal standard MMV1542001 at a concentration of 100 ng/mL was added. After vortex mixing, the samples were centrifuged for 10 min at 50,000 g at 8 °C. Subsequently, an aliquot of 20 µL of the supernatant was transferred to an autosampler vial and an aliquot of 5 µL was injected onto the LC-MS/MS system.
The samples were handled by an autosampler CTC PAL (CTC Analytics AG, Zwingen, Switzerland) set at 8 °C. The chromatography column used was a YMC Hydrosphere C18, 2.1 × 33 mm, 3 µm (YMC Co. Ltd., Kyoto, Japan), kept at room temperature. The aqueous mobile phase consisted of water containing 0.1 % formic acid, whereas the organic mobile phase consisted of acetonitrile containing 0.1 % formic acid, pumped by HPLC pump from Agilent 1200 series (Agilent Technologies Inc, Santa Clara, CA, USA). The HPLC gradient was as follows: 95% phase A, 5% phase B for 0.20 min, followed by transition to 5% phase A, 95% phase B in 1 min, 2 min at these concentrations, and a subsequent increase to 95% phase A, 5% phase B in 0.05 min which is kept for the remaining 0.75 min.
The detection of MMV693183 was performed using a TSQ Access mass spectrometer (Thermo Fisher Scientific, San Jose, CA, USA) by selected reaction monitoring. The ion source was heated electrospray ionization, using a negative polarity. Following parameters were used: Voltage 2500 [V], Vaporizer temperature 350 [°C], Sheath gas 60 [au], Auxiliary gas 5 [au], Capillary temperature 350 [°C] and Collision gas pressure 1.0 [mTorr]. […] The transition used for the internal standard was: parent ion 325.030 m/z—daughter ion 195.000 m/z.
The concentration of the analyte was calculated using the internal standardization method. The area ratio of analyte to internal standard against the concentration of calibration samples was used for quantification. The acquisition and processing of data were performed using LCquan 2.5.6 and Xcalibur 2.0.7. Microsoft Office Excel 2007 Prof was used for calculations and statistical evaluation of data. […] The Lower Limit of Quantification was 5.00 ng/mL in […], whereas The Upper Limit of Quantification was 5000 ng/mL in mouse blood/water (1/1).

[3] = asexual blood stages NF54 parasites, read-out: IC50
[4] = per replicate experiment, read-out: IC50, asexual blood stages

SMILES | pIC50 [1, 3] | AUC0-24h ([2]; 50 mg/kg p.o.) | Cmax ([2]; 50 mg/kg p.o.) | T1/2 ([2]; 50 mg/kg p.o.) | Tmax ([2]; 50 mg/kg p.o.) | concentration in blood ([2]; 1 h post treatment, per mouse) | concentration in blood ([2]; 2 h post treatment, per mouse) | concentration in blood ([2]; 4 h post treatment, per mouse) | concentration in blood ([2]; 6 h post treatment, per mouse) | concentration in blood ([2]; 24 h post treatment, per mouse) | asexual blood stages growth, dose-response ([1]; Log concentration (M) -7.5) | asexual blood stages growth, dose-response ([1]; Log concentration (M) -8) | asexual blood stages growth, dose-response ([1]; Log concentration (M) -8.5) | asexual blood stages growth, dose-response ([1]; Log concentration (M) -9) | asexual blood stages growth, dose-response ([1]; Log concentration (M) -9.5) | asexual blood stages growth, dose-response ([1]; Log concentration (M) -10) | pIC50 [1, 4] | also measured
CC(CNC(=O)C(O)C(C)(C)CO)NC(=O)CCc1ccccc1F (stereo in doubt) [MMV689258] | 8.15 | 6730 ng·h/mL | 3780 ng/mL | 3.26 h | 1.00 h | 3100 ng/mL and 4460 ng/mL | 1090 ng/mL and 698 ng/mL | 368 ng/mL and 236 ng/mL | 91.8 ng/mL and 110 ng/mL | 10 ng/mL | – | – | – | – | – | – | – | –
C[C@@H](CNC(=O)[C@H](O)C(C)(C)CO)NC(=O)c1cccc(C#N)c1 (stereo in doubt) [MMV884962] | 8.13 | 8650 ng·h/mL | 3920 ng/mL | 3.32 h | 1.00 h | 3920 ng/mL | 1180 ng/mL and 1170 ng/mL | 468 ng/mL and 370 ng/mL | 222 ng/mL and 193 ng/mL | 13 ng/mL and 10 ng/mL | 11.25 and 6.6 | 55.2 and 32.3 | 80.1 and 73.8 | 84.85 and 73.05 | 95.6 and 92.6 | 93.15 and 89.75 | 7.92 and 8.13 | asexual blood stages growth, dose-response ([1]; Log concentration (M) -7): 1.15 and 1.45
C[C@@H](CNC(=O)[C@H](O)C(C)(C)CO)NC(=O)c1cccc(F)c1 (stereo in doubt) [MMV1542001] | 8.62 | 11800 ng·h/mL | 5150 ng/mL | 2.80 h | 1.00 h | 4480 ng/mL and 5820 ng/mL | 1520 ng/mL and 1620 ng/mL | 492 ng/mL and 574 ng/mL | 314 ng/mL and 340 ng/mL | 10 ng/mL | – | – | 33 and 19.45 | 66.7 and 78.5 | 89.15 and 95.45 | 79.7 and 90.9 | 8.61 and 8.73 | –
C[C@@H](CNC(=O)[C@H](O)C(C)(C)CO)NC(=O)c1cc(C#N)ccc1F [MMV693182] | – | – | – | – | – | 4180 ng/mL | 2200 ng/mL and 1000 ng/mL | 866 ng/mL | 266 ng/mL and 912 ng/mL | 10 ng/mL and 22.4 ng/mL | 14.55 and 11.25 | 38 and 38.5 | 59.8 and 65.55 | 98.45 and 83.35 | 91.35 and 91.95 | 80.55 and 97.8 | 8.21 | pIC50 ([1]; Plasmodium falciparum, NF54, 72 h, 72-h asexual growth assay, range of independent experiments, read-out: Asexual blood stage IC50 range (N)): 8.12 to 8.21; pIC50 ([1]; Plasmodium falciparum, NF54, asexual blood stages NF54 parasites): 8.12; pIC50 ([1]; Plasmodium falciparum, NF54, per replicate experiment, read-out: IC50, asexual blood stages): 8.12; concentration at 1 h ([2]; female, NSG (NODscidIL2Rγnull), mouse, whole blood, oral, 50 mg/kg, 1 h post treatment, per mouse): 6360 ng/mL; concentration at 4 h ([2]; female, NSG (NODscidIL2Rγnull), mouse, whole blood, oral, 50 mg/kg, 4 h post treatment, per mouse): 552 ng/mL; half-life ([2]; female, NSG (NODscidIL2Rγnull), mouse, whole blood, po, 50 mg/kg p.o.): 3.19 h; AUC(0 - t) ([2]; female, NSG (NODscidIL2Rγnull), mouse, whole blood, po, 50 mg/kg p.o., read-out: AUC0-24h): 15100 ng·h/mL; Cmax ([2]; female, NSG (NODscidIL2Rγnull), mouse, whole blood, po, 50 mg/kg p.o., read-out: Cmax): 5270 ng/mL; Tmax ([2]; female, NSG (NODscidIL2Rγnull), mouse, whole blood, po, 50 mg/kg p.o., read-out: Tmax): 1 h
C[C@@H](CNC(=O)[C@H](O)C(C)(C)CO)NC(=O)c1cc(F)c(F)cc1F [MMV693183] | 8.55 | 33700 ng·h/mL | 12900 ng/mL | 2.49 h | 1.50 h | 6960 ng/mL and 16200 ng/mL | 9660 ng/mL and 7300 ng/mL | 2360 ng/mL and 1170 ng/mL | 802 ng/mL and 376 ng/mL | 10 ng/mL | – | – | 38.5 and 30.4 and 47.25 and 30.7 | 74.05 and 74.55 and 77.05 and 67.5 | 92.6 and 74.65 and 93.65 and 69.75 | 93.45 and 77.05 and 101.75 and 92 | 8.62 and 8.55 and 8.58 and 8.67 | in vitro-determined IC99 [1]: 36.1 nM

Reference: article PMC9021288 (Nature Communications, 2022)
